ChEMBL document CHEMBL1201862, “PubChem BioAssay data set” (2004)
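Dose response: 5 concentrations. Exposure: 48 h. Format: 96-well plates. Endpoint: linear interpolation; highest concentration if not reached. The concentration for 50% growth inhibition is given as GI50.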 The source made the active and inactive calls. No stated cut-off is given here; in the data, active = GI50 up to about 1.1 µM and inactive = higher.

Columns and labels:
Assay in all cases: growth of human tumour cells (NCI), 48 h
[1] = test system: A549
[2] = test system: UO-31
[3] = test system: SK-OV-3
[4] = test system: HT-29
[5] = test system: SR
[6] = test system: HCC 2998
[7] = test system: M14
[8] = test system: NCI-H23
[9] = test system: HOP-92
[10] = test system: M19-MEL
[11] = test system: NCI-H226
[12] = test system: UACC-62
[13] = test system: KM12
[14] = test system: TK-10
[15] = test system: A498
[16] = test system: SK-MEL-28
[17] = test system: MDA-N
[18] = test system: MDA-MB-435
[19] = test system: PC-3
[20] = test system: MCF7

Row | Compound | GI50 [1] | GI50 [2] | GI50 [3] | GI50 [4] | GI50 [5] | GI50 [6] | GI50 [7] | GI50 [8] | GI50 [9] | GI50 [10] | GI50 [11] | GI50 [12] | GI50 [13] | GI50 [14] | GI50 [15] | GI50 [16] | GI50 [17] | GI50 [18] | GI50 [19] | GI50 [20]
1 | C[n+]1c2ccccc2c(CNC(CS)C(=O)O)c2ccccc21 (centres undefined) | 30.3 µM (inactive) | 18 µM (inactive) | 23.1 µM (inactive) | 29.3 µM (inactive) | 12.7 µM (inactive) | 31.5 µM (inactive) | 38.9 µM (inactive) | 25.9 µM (inactive) | 18.7 µM (inactive) | 27.7 µM (inactive) | 29.8 µM (inactive) | 14.6 µM (inactive) | 19.7 µM (inactive) | 39.1 µM (inactive) | 17.2 µM (inactive) |  |  |  |  | 
2 | [C-]#[N+][C@@H]1C2[C@H](CC[C@@]1(C)O)C(=C)CC[C@@H]2[C@@]1(C)CC[C@H](Cl)C(C)(C)O1 (some centres undefined) | 8.02 µM (inactive) | 2.06 µM (inactive) | 25.4 µM (inactive) | 11.9 µM (inactive) |  | 11.1 µM (inactive) | 2.81 µM (inactive) | 4.75 µM (inactive) |  | 4.12 µM (inactive) | 4.46 µM (inactive) | 3.59 µM (inactive) | 3.53 µM (inactive) | 16.2 µM (inactive) | 18.5 µM (inactive) | 26.3 µM (inactive) |  |  |  | 
3 | CC1CC(=O)Nc2ccccc2N1C(=O)CN1CCC(CCCCN(C)C)CC1 (centres undefined) | > 100 µM (inactive) | > 100 µM (inactive) |  | > 100 µM (inactive) | > 100 µM (inactive) | > 100 µM (inactive) | > 100 µM (inactive) | > 100 µM (inactive) |  | > 100 µM (inactive) | > 100 µM (inactive) | > 100 µM (inactive) | > 100 µM (inactive) | > 100 µM (inactive) | > 100 µM (inactive) | > 100 µM (inactive) |  |  |  | 
4 | CC1(C)C2CCC13CS(=O)(=O)N1O[C@]13C(=O)O2 (some centres undefined) | > 100 µM (inactive) | > 100 µM (inactive) |  | > 100 µM (inactive) | > 100 µM (inactive) | > 100 µM (inactive) |  | > 100 µM (inactive) | > 100 µM (inactive) | > 100 µM (inactive) | > 100 µM (inactive) |  | > 100 µM (inactive) | > 100 µM (inactive) | > 100 µM (inactive) | > 100 µM (inactive) |  |  |  | 
5 | CC(C)(C)c1ccnc(/N=C2\N/C(=N\c3cc(C(C)(C)C)ccn3)c3ccccc32)c1 | 26.1 µM (inactive) | 32 µM (inactive) | 26.5 µM (inactive) | 12.4 µM (inactive) | 31.4 µM (inactive) |  | 32.5 µM (inactive) | 30.7 µM (inactive) | 22.6 µM (inactive) | 33.1 µM (inactive) | > 100 µM (inactive) | 50.1 µM (inactive) | 41.8 µM (inactive) | 21.4 µM (inactive) | 19.9 µM (inactive) | 24.4 µM (inactive) |  |  |  | 
6 | NC(=O)C(=O)Cc1nc2ccccc2s1 | > 100 µM (inactive) | > 100 µM (inactive) | > 100 µM (inactive) | > 100 µM (inactive) |  | > 100 µM (inactive) | > 100 µM (inactive) | > 100 µM (inactive) | > 100 µM (inactive) | > 100 µM (inactive) | > 100 µM (inactive) |  | > 100 µM (inactive) | > 100 µM (inactive) | > 100 µM (inactive) | > 100 µM (inactive) |  |  |  | 
7 | COC(=O)C1(C)NCCc2c1[nH]c1ccccc21 (centres undefined) | > 100 µM (inactive) | > 100 µM (inactive) | > 100 µM (inactive) | > 100 µM (inactive) | > 100 µM (inactive) | > 100 µM (inactive) | > 100 µM (inactive) | > 100 µM (inactive) | > 100 µM (inactive) | > 100 µM (inactive) |  | > 100 µM (inactive) | > 100 µM (inactive) | > 100 µM (inactive) | > 100 µM (inactive) | > 100 µM (inactive) |  |  |  | 
8 | COc1ccc(C(=O)C(C(=O)CC(=O)Nc2cccc(C(F)(F)F)c2)c2ccc(OC)cc2)cc1 (centres undefined) | > 100 µM (inactive) | > 100 µM (inactive) | > 100 µM (inactive) | > 100 µM (inactive) | > 100 µM (inactive) | > 100 µM (inactive) | > 100 µM (inactive) | > 100 µM (inactive) | > 100 µM (inactive) | > 100 µM (inactive) | > 100 µM (inactive) | > 100 µM (inactive) | > 100 µM (inactive) |  | > 100 µM (inactive) | > 100 µM (inactive) |  |  |  | 
9 | CCC12C=C(C(=O)OC)N3c4ccccc4C4CCN(CCC1)C2C43 (centres undefined) | > 100 µM (inactive) | 77.3 µM (inactive) | > 100 µM (inactive) | 32.1 µM (inactive) |  | 29.7 µM (inactive) | 33.4 µM (inactive) | 99.3 µM (inactive) | 34.8 µM (inactive) | 75.9 µM (inactive) | 25.3 µM (inactive) | > 100 µM (inactive) | 48.3 µM (inactive) | > 100 µM (inactive) | 66.2 µM (inactive) | 95.7 µM (inactive) |  |  |  | 
10 | C[S+]=c1sc2ccccc2s1 | > 100 µM (inactive) | > 100 µM (inactive) | > 100 µM (inactive) | > 100 µM (inactive) | > 100 µM (inactive) | > 100 µM (inactive) | > 100 µM (inactive) |  | > 100 µM (inactive) | > 100 µM (inactive) | > 100 µM (inactive) | > 100 µM (inactive) | > 100 µM (inactive) | > 100 µM (inactive) | > 100 µM (inactive) |  |  |  |  | 
11 | O=C(Nc1ccccc1C(=O)O)C(=O)C(C(=O)c1ccccc1-c1ccccc1)C1OC(=O)c2ccccc21 (centres undefined) | 31.4 µM (inactive) | 18 µM (inactive) | 30.9 µM (inactive) | 29.7 µM (inactive) | 18.3 µM (inactive) | 16.5 µM (inactive) | 17.1 µM (inactive) | 22.8 µM (inactive) |  | 21.1 µM (inactive) | 12.5 µM (inactive) | 16.6 µM (inactive) | 18 µM (inactive) | 13.9 µM (inactive) | 19.3 µM (inactive) | 19.4 µM (inactive) |  |  |  | 
12 | CCc1ccccc1N1C(=O)C(=O)C(c2nc3ccccc3s2)C(=O)C1=O | > 100 µM (inactive) | > 100 µM (inactive) | > 100 µM (inactive) | > 100 µM (inactive) | 55 µM (inactive) | > 100 µM (inactive) | 59 µM (inactive) | 66.2 µM (inactive) | > 100 µM (inactive) | > 100 µM (inactive) | > 100 µM (inactive) | > 100 µM (inactive) | > 100 µM (inactive) | > 100 µM (inactive) |  | > 100 µM (inactive) |  |  |  | 
13 | N#CC(C#N)=c1ccc(=C2N3CCCC3CN2C23CC4CC(CC(C4)C2)C3)cc1 (centres undefined) | > 100 µM (inactive) | > 100 µM (inactive) | > 100 µM (inactive) | > 100 µM (inactive) | > 100 µM (inactive) | > 100 µM (inactive) | > 100 µM (inactive) | > 100 µM (inactive) | > 100 µM (inactive) | > 100 µM (inactive) | > 100 µM (inactive) | 90.6 µM (inactive) | > 100 µM (inactive) | 76.4 µM (inactive) |  | 69.3 µM (inactive) |  |  |  | 
14 | C[C@]12CCC(=O)C(OC(=O)c3ccc([N+](=O)[O-])cc3)=C1CCC2=O | > 100 µM (inactive) |  | > 100 µM (inactive) | > 100 µM (inactive) | > 100 µM (inactive) | > 100 µM (inactive) | > 100 µM (inactive) |  | > 100 µM (inactive) | > 100 µM (inactive) | 95.5 µM (inactive) | > 100 µM (inactive) | > 100 µM (inactive) | > 100 µM (inactive) | > 100 µM (inactive) | > 100 µM (inactive) |  |  |  | 
15 | C#CC1(O)CCC2C3CCc4cc(Oc5nc(F)nc(-c6c7ccccc7c7n6CCS7)n5)ccc4C3CC[C@@]21C (some centres undefined) | 33.6 µM (inactive) | 28.6 µM (inactive) |  | 27.9 µM (inactive) | 5.79 µM (inactive) | 19.2 µM (inactive) | 17.5 µM (inactive) | 18.7 µM (inactive) | 23.8 µM (inactive) | 33.9 µM (inactive) | 34 µM (inactive) | 21.1 µM (inactive) | 15.1 µM (inactive) | 27.2 µM (inactive) |  | 21.1 µM (inactive) |  |  |  | 
16 | CC1=CC(=O)c2c(O)cccc2C1=O [PLUMBAGIN] | 11.5 µM (inactive) | 1.61 µM (inactive) | 14.1 µM (inactive) | 1.89 µM (inactive) | 1.69 µM (inactive) | 2.07 µM (inactive) | 1.86 µM (inactive) | 1.81 µM (inactive) | 0.465 µM (active) |  | 6.55 µM (inactive) | 1.94 µM (inactive) | 6.17 µM (inactive) | 1.71 µM (inactive) | 5.86 µM (inactive) | 1.82 µM (inactive) | 1.72 µM (inactive) | 1.73 µM (inactive) | 2.21 µM (inactive) | 1.79 µM (inactive)
17 | COC(=O)C1CC2CC(=NNC(N)=O)CC2C1 (centres undefined) | > 100 µM (inactive) | > 100 µM (inactive) | > 100 µM (inactive) | > 100 µM (inactive) |  | > 100 µM (inactive) | > 100 µM (inactive) | > 100 µM (inactive) | > 100 µM (inactive) | > 100 µM (inactive) |  | > 100 µM (inactive) | > 100 µM (inactive) | > 100 µM (inactive) | > 100 µM (inactive) | > 100 µM (inactive) |  |  |  | 
18 | Cc1nc(O)nc(N/N=C/c2ccc(Cl)c(Cl)c2)c1C(=O)Nc1ccc(Cl)c(Cl)c1 | 14 µM (inactive) | > 42.1 µM (inactive) | 14 µM (inactive) | 14.9 µM (inactive) | 36.3 µM (inactive) | > 51.8 µM (inactive) | 5.22 µM (inactive) | 13.1 µM (inactive) | 17.9 µM (inactive) |  | 28.4 µM (inactive) | 17.6 µM (inactive) | 6.49 µM (inactive) | 11.5 µM (inactive) | 3.12 µM (inactive) | 8.97 µM (inactive) | 15.7 µM (inactive) | 11.1 µM (inactive) | 12.7 µM (inactive) | 18.5 µM (inactive)
